The record followed here is ChEMBL document CHEMBL5365530, “Identification of a Novel, Potent, and Orally Bioavailable Guanidine-Based SHP2 Allosteric Inhibitor from Virtual Screening and Rational Structural Optimization for the Treatment of KRAS Mutant Cancers” (J Med Chem, 2023).

Where only a bound is given, the exact number is not on record here.

Series [1] deals with T1, Tyrosine-protein phosphatase non-receptor type 11 (Homo sapiens, UniProt Q06124).
T1 sequence (Q06124 whole entry): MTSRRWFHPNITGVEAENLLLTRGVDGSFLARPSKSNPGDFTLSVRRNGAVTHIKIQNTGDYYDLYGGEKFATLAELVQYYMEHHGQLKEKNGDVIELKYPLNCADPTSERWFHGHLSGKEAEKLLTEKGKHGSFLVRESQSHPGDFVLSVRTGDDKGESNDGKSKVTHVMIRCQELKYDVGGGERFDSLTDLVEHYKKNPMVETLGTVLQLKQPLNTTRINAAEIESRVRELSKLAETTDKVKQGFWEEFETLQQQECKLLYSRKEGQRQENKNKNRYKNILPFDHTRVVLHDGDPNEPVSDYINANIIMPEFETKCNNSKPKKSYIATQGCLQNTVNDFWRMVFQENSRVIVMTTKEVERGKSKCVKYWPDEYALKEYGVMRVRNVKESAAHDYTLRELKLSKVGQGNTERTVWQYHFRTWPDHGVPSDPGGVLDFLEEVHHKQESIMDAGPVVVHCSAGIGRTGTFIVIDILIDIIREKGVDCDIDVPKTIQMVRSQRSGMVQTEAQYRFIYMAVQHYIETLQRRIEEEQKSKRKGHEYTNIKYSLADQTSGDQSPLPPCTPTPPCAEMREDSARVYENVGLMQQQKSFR
Description: Allosteric Inhibition of H2N-LN(pY)IDLDLV(dPEG8)LST(pY)ASINFQKASINFQK-amide-activated SHP2 (unknown origin) using DiFMUP as substrate pretreated with enzyme for 1 hr followed by substrate addition and measured after 20 mins by fluorescence based analysis.

Series [2] has as its target T1, Tyrosine-protein phosphatase non-receptor type 11. Briefly: Inhibition of SHP2 PTP domain (unknown origin) using DiFMUP as substrate pretreated with enzyme for 20 mins followed by substrate addition and measured for 2 hrs by fluorescence based analysis.
Series [3] deals with Tyrosine-protein phosphatase non-receptor type 6 (Homo sapiens, UniProt P29350). Briefly: Inhibition of SHP1 (unknown origin) using DiFMUP as substrate pretreated with enzyme for 20 mins followed by substrate addition and measured for 2 hrs by fluorescence based analysis.
Tyrosine-protein phosphatase non-receptor type 6, sequence (P29350 whole entry): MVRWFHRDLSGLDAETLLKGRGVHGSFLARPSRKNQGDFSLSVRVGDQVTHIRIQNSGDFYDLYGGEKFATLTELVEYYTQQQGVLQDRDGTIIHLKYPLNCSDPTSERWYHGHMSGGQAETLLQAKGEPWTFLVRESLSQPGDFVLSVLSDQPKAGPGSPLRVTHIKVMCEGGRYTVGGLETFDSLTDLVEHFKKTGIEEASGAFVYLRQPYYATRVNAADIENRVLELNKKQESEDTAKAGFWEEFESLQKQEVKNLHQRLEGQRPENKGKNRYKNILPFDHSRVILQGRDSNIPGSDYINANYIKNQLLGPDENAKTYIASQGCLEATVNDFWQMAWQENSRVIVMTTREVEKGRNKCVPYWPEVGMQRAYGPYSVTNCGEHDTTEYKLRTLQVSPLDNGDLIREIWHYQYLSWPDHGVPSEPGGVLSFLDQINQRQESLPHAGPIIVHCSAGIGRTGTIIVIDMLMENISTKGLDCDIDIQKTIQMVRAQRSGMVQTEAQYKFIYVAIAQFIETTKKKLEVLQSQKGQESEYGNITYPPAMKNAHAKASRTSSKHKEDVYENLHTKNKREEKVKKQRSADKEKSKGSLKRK
Series [4] concerns MIA PaCa-2. Briefly: Antiproliferative activity against human MIA PaCa-2 cells harboring KRASG12C mutant assessed as inhibition of cell growth incubated for 72 hrs by CellTiter-LumiII Luminescent assay. The settings on record: MIA PaCa-2, 72 h. It counts as functional, cell-based.
Series [5] concerns KYSE-520 cell line. Briefly: Antiproliferative activity against human KYSE-520 cells assessed as inhibition of cell growth incubated for 72 hrs by CellTiter-LumiII Luminescent assay. Type of series: functional, cell-based. The settings on record: KYSE-520, 72 h.
Series [6] concerns MIA PaCa-2. Description: Induction of apoptosis in human MIA PaCa-2 cells assessed as proportion of viable cells at 2.5 uM incubated for 72 hrs by AnnexinV-FITC/PI staining based flow cytometry (reference value: 98.19%). Type of series: functional. Background: A flow cytometer gives signals particle by particle.
In series [7] the test system is MIA PaCa-2. Briefly: Induction of apoptosis in human MIA PaCa-2 cells assessed as proportion of early apoptotic cells at 2.5 uM incubated for 72 hrs by AnnexinV-FITC/PI staining based flow cytometry (reference value: 0.26%). It counts as functional.
For series [8], the system named is MIA PaCa-2. Description: Induction of apoptosis in human MIA PaCa-2 cells assessed as proportion of late apoptotic cells at 2.5 uM incubated for 72 hrs by AnnexinV-FITC/PI staining based flow cytometry (reference value: 1.36%). Type of series: functional.
Series [9] concerns MIA PaCa-2. Description: Induction of apoptosis in human MIA PaCa-2 cells assessed as proportion of necrotic cells at 2.5 uM incubated for 72 hrs by AnnexinV-FITC/PI staining based flow cytometry (reference value: 0.19%). Type of series: functional.
Series [10] has as its system MIA PaCa-2. Briefly: Induction of apoptosis in human MIA PaCa-2 cells assessed as proportion of viable cells at 5 uM incubated for 72 hrs by AnnexinV-FITC/PI staining based flow cytometry (reference value: 98.19%). It counts as functional.
Series [11] deals with MIA PaCa-2. Briefly: Induction of apoptosis in human MIA PaCa-2 cells assessed as proportion of early apoptotic cells at 5 uM incubated for 72 hrs by AnnexinV-FITC/PI staining based flow cytometry (reference value: 0.26%). It counts as functional.
Series [12] concerns MIA PaCa-2. Briefly: Induction of apoptosis in human MIA PaCa-2 cells assessed as proportion of late apoptotic cells at 5 uM incubated for 72 hrs by AnnexinV-FITC/PI staining based flow cytometry (reference value: 1.36%). It counts as functional.
Series [13] relates to MIA PaCa-2. Briefly: Induction of apoptosis in human MIA PaCa-2 cells assessed as proportion of necrotic cells at 5 uM incubated for 72 hrs by AnnexinV-FITC/PI staining based flow cytometry (reference value: 0.19%). Type of series: functional.
Series [14] deals with MIA PaCa-2. Briefly: Induction of apoptosis in human MIA PaCa-2 cells assessed as proportion of viable cells at 10 uM incubated for 72 hrs by AnnexinV-FITC/PI staining based flow cytometry (reference value: 98.19%). Type of series: functional.
Series [15] relates to MIA PaCa-2. Briefly: Induction of apoptosis in human MIA PaCa-2 cells assessed as proportion of early apoptotic cells at 10 uM incubated for 72 hrs by AnnexinV-FITC/PI staining based flow cytometry (reference value: 0.26%). Type of series: functional.
The subject of series [16] is MIA PaCa-2. Description: Induction of apoptosis in human MIA PaCa-2 cells assessed as proportion of late apoptotic cells at 10 uM incubated for 72 hrs by AnnexinV-FITC/PI staining based flow cytometry (reference value: 1.36%). It counts as functional.
Series [17] has as its system MIA PaCa-2. Description: Induction of apoptosis in human MIA PaCa-2 cells assessed as proportion of necrotic cells at 10 uM incubated for 72 hrs by AnnexinV-FITC/PI staining based flow cytometry (reference value: 0.19%). It counts as functional.
A short description of series [18]: Half life in ICR mouse at 1 mg/kg, iv measured for 24 hrs by LC-MS/MS analysis. It counts as ADME, organism-based. The settings on record: in vivo.
A short description of series [19]: Clearance in ICR mouse at 1 mg/kg, iv measured for 24 hrs by LC-MS/MS analysis. The settings on record: in vivo. It counts as ADME, organism-based.
Series [20] in a line: Volume of distribution in ICR mouse at 1 mg/kg, iv measured for 24 hrs by LC-MS/MS analysis. It counts as ADME, organism-based. The settings on record: in vivo.
The nature of series [21]: AUC in ICR mouse at 1 mg/kg, iv measured for 24 hrs by LC-MS/MS analysis. It counts as ADME, organism-based. Further details: time 24 hrs, dose 1 mg/kg, route iv. The settings on record: in vivo.
Series [22] is described as follows: Half life in ICR mouse at 10 mg/kg, po measured for 24 hrs by LC-MS/MS analysis. Type of series: ADME, organism-based. The settings on record: in vivo.
Series [23] can be described thus: Tmax in ICR mouse at 10 mg/kg, po measured for 24 hrs by LC-MS/MS analysis. Type of series: ADME, organism-based. The settings on record: in vivo.
A short description of series [24]: Cmax in ICR mouse at 10 mg/kg, po measured for 24 hrs by LC-MS/MS analysis. Further details: time 24 hrs, dose 10 mg/kg, route po. The settings on record: in vivo. Type of series: ADME, organism-based.
Series [25] is described as follows: AUC in ICR mouse at 10 mg/kg, po measured for 24 hrs by LC-MS/MS analysis. It counts as ADME, organism-based. The settings on record: in vivo. Further details: dose 10 mg/kg, time 24 hrs, route po.
Series [26] is described as follows: Oral bioavailability in ICR mouse at 10 mg/kg measured for 24 hrs by LC-MS/MS analysis. The settings on record: in vivo. It counts as ADME, organism-based.
Series [27] concerns MIA PaCa-2. Description: Antitumor activity against human MIA PaCa-2 cells xenografted in BALB/c nude mouse assessed as inhibition of tumor growth at 40 mg/kg, po administered daily for 17 days. Type of series: functional. The settings on record: time 17 day. A general note: In xenograft studies the graft and the host belong to different species.
The nature of series [28]: Toxicity against BALB/c nude mouse xenografted with human MIA PaCa-2 cells assessed as animal's death at 20 to 40 mg/kg, po administered daily for 17 days. It counts as organism-based. The settings on record: in vivo, 408 h, dose 20-40 mg/kg, time 17 day.
A short description of series [29]: Toxicity against BALB/c nude mouse xenografted with human MIA PaCa-2 cells assessed as effect on body weight at 20 to 40 mg/kg, po administered daily for 17 days. It counts as organism-based. The settings on record: in vivo, 408 h, dose 20-40 mg/kg, time 17 day.
In series [30] the test system is RAW264.7. Briefly: Cytotoxicity against mouse RAW264.7 cells assessed as cell viability at 10 to 30 uM incubated for 72 hrs by CellTiter-LumiII Luminescent assay. Type of series: toxicity, cell-based. The settings on record: raw264.7, 72 h, dose 10-30 µM.
Series [31] is described as follows: Hepatotoxicity in ICR mouse assessed as increase in plasma AST level at 100 mg/kg, po administered once every 2 days and measured on day 14. It counts as toxicity, organism-based. The settings on record: in vivo, 336 h, time 14 day.
Series [32] is described as follows: Hepatotoxicity in ICR mouse assessed as increase in plasma ALT level at 100 mg/kg, po administered once every 2 days and measured on day 14. The settings on record: in vivo, 336 h, time 14 day. It counts as toxicity, organism-based.
A short description of series [33]: Hepatotoxicity in ICR mouse assessed as increase in plasma ALP level at 100 mg/kg, po administered once every 2 days and measured on day 14. Type of series: toxicity, organism-based. The settings on record: in vivo, 336 h, time 14 day.

The IC50 is the concentration that gives 50% inhibition. Turning to `N/C(=N\c1ncccn1)N1CCN(c2cnc(-c3cccc(Cl)c3Cl)c(N)n2)CC1`, the IC50 in series [1] was found to be 715 nM.
Still for that read-out and setting: as for `N/C(=N\c1cnccn1)N1CCN(c2cnc(-c3cccc(Cl)c3Cl)c(N)n2)CC1`, the figure is 396 nM; as for `CN/C(=N\c1ccc(C#N)cc1)N1CCN(c2cnc(-c3cccc(Cl)c3Cl)c(N)n2)CC1`, 2000 nM; as for `COc1ccccc1/N=C(\N)N1CCN(c2cnc(-c3cccc(Cl)c3Cl)c(N)n2)CC1`, 112 nM.
On to `N/C(=N\C(=O)c1ccncc1)N1CCN(c2cnc(-c3cccc(Cl)c3Cl)c(N)n2)CC1`, for which, in series [1], the IC50 was 4850 nM.
Usually half-life stands for the time needed for the level to fall by half in the phase considered. Lower therefore signals rapid decline. Usually clearance stands for a measure of how efficiently the substance is removed, as volume per time. A lower clearance goes with a low capacity for elimination. What is called Vd is the apparent volume that relates the amount in the body to the concentration in plasma or blood. A lower Vd goes with confinement near the circulation. One may read the AUC as concentration integrated over time. High values mean more exposure, low ones less exposure. For orientation: Tmax means the time from dosing to the highest level. The term Cmax denotes the peak of the concentration-time curve. Usually bioavailability stands for dose-corrected exposure relative to a reference, in per cent. Low readings indicate poor availability, high ones good availability. As to `COc1cc(/N=C(\N)N2CCN(c3cnc(-c4cccc(Cl)c4Cl)c(N)n3)CC2)ccc1C#N`, the IC50 in [1] was 17.7 nM; in series [2], > 30000 nM; in series [3], > 30000 nM; in [4], 6800 nM; in series [5], 1800 nM. In addition, the Activity worked out at 88.63% in series [6]; 4.98% in [7]; 6.18% in series [8]; 0.21% in [9]; 79.83% in [10]; 7.47% in series [11]. In addition, the Activity in series [12] is reported as 12.55%; in series [13] it was 0.15%; in series [14] it was 63.59%; in series [15] it was 12.54%; in [16], 23.65%; in [17] it was 0.22%. Besides, the Activity entry in series [28], in series [29], in series [30], in [31], in series [32] and in series [33] was “Non-Toxic” in each case. The results for the half-life in series [18] and in [22] were 1.9 h and 2 h, respectively. In series [19], this molecule yielded a clearance of 52.2 mL/min/kg. The molecule also returned a Vd in series [20] of 8.4 L/kg. The results for the exposure (AUC) at 24 h in series [21] and in series [25] were 0.651 µM·h and 4.32 µM·h, respectively. Besides, the Tmax in series [23] turned out to be 0.8 h. Further, the highest level in series [24] (Cmax) was 1090 nM. The molecule further displayed a bioavailability in series [26] of 66.3%. Besides, the “inhibition (INH)” value in series [27] is reported as 48%.
As to `CN(CCN(C)c1cnc(-c2cccc(Cl)c2Cl)c(N)n1)C(=N)N`, the IC50 in series [1] turned out to be 6250 nM.
For the molecule `N#Cc1cc(/N=C(\N)N2CCN(c3cnc(-c4cccc(Cl)c4Cl)c(N)n3)CC2)cs1`, the IC50 in series [1] was 72.8 nM.
With `N#Cc1ccc(/N=C(\N)N2CCN(c3cnc(-c4cccc(Cl)c4Cl)c(N)n3)CC2)cn1`, the IC50 in [1] came to 74.2 nM.
Still for that read-out and setting: as for `N/C(=N\c1ccc(F)cc1)N1CCN(c2cnc(-c3cccc(Cl)c3Cl)c(N)n2)CC1`, the figure is 53.3 nM; as for `N/C(=N\c1ccsc1)N1CCN(c2cnc(-c3cccc(Cl)c3Cl)c(N)n2)CC1`, 48.1 nM; as for `N#Cc1ccc(/N=C(\N)N2CCN(c3cnc(-c4cccc(Cl)c4Cl)c(N)n3)CC2)cc1`, 34.6 nM.
Still for that read-out and setting: as for `N/C(=N\c1cccs1)N1CCN(c2cnc(-c3cccc(Cl)c3Cl)c(N)n2)CC1`, the figure is 252 nM; as for `NC(=O)N1CCN(c2cnc(-c3cccc(Cl)c3Cl)c(N)n2)CC1`, 6360 nM.
On the same count and under the same terms, the value for `N/C(=N\c1ccccn1)N1CCN(c2cnc(-c3cccc(Cl)c3Cl)c(N)n2)CC1` was 184 nM.
